Data published in PMC10065799, “High-throughput profiling of sequence recognition by tyrosine kinases and SH2 domains using bacterial peptide display” (eLife, 2023).

Experiments:
Test in all cases: pTyr-Var library bacterial peptide display kinase screen (enrichment scores)
[1] = molecular target: T1, c-Abl kinase domain (Mus musculus, UniProt P00520); assay type: biochemical;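 also: log2 fold change in enrichment of variant over reference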
T1 sequence (P00520 242-493 limits assumed): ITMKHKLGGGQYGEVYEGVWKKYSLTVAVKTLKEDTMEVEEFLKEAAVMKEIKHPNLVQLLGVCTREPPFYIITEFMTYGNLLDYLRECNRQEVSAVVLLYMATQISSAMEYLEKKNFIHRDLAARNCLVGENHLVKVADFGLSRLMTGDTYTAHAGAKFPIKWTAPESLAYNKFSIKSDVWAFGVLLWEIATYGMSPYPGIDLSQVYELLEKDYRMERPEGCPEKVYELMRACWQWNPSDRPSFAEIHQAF

[2] = test system: EPHB1 kinase domain; assay type: biochemical, human; details: for Screen: sheet EPHB1, effect of the variant peptide relative to its reference peptide in the pTyr-Var library screen (enrichment scores); for Screen (variant relative to reference peptide, measured in the pTyr-Var library screen): sheet "EPHB1", variant seq vs reference seq, bacterial peptide display enrichment
[3] = molecular target: c-Src kinase domain (Homo sapiens, UniProt P12931); assay type: biochemical; details: sheet "Src";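 also: log2 fold change in enrichment of variant over reference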
[4] = test system: Fer kinase domain; assay type: biochemical, mouse; details: sheet "Fer";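 also: log2 fold change in enrichment of variant over reference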
[5] = fig5-data2, sheet "Abl", Screen for the variant/reference peptide pair, pTyr-Var library
[6] = variant peptide versus its reference peptide in the pTyr-Var library screen
[7] = sheet "Abl", effect of variant peptide relative to its reference peptide in pTyr-Var library screen (enrichment)
[8] = variant peptide relative to its reference peptide, pTyr-Var library screen enrichment
[9] = effect of the variant peptide relative to its reference peptide in the pTyr-Var library screen
[10] = value of the variant peptide against its reference peptide in the pTyr-Var library screen with Fer

Row | Sequence | Screen [1, 5] | Screen [3, 9] | also measured
1 | GGPAEYLRRAS [PKLR_Y38_G37E] | 0.6619 |  | 
2 | LDPDSYNKFEN [FOXC1_Y159_M161K] | 0.592 |  | 
3 | HSVLNYGVCVC [JAK2_Y613_L609S] |  |  | Screen [2]: -0.7312
4 | MGSFNYLGFPR [SPTLC2_Y178_A182P_YF] |  |  | Screen (variant relative to reference peptide, measured in the pTyr-Var library screen) [2]: 0.8704
5 | RRIHNYRGHLW [VHL_Y112_S111N] |  |  | Screen [3, 6]: -2.675; Screen (variant relative to reference peptide, measured in the pTyr-Var library screen) [2]: -1.094
6 | QRRLIYRCQVG [NR2E3_Y81_R76Q] | 1.984 |  | 
7 | ISHVAYLVLGK [TRRAP_Y892_R893L] |  |  | Screen [1, 7]: -1.807
8 | PMDGEYFTLQI [TP53_Y327_L323M] |  |  | Screen [3, 6]: 0.4461; Screen [4, 8]: 0.4582
9 | KDPPDYKFQPR [SOX9_Y172_H169P_YF] |  |  | Screen [1, 7]: -0.03774
10 | PRRRFYVVACD [RNASE3_Y134_G130R] |  |  | Screen [3, 6]: -1.377
11 | NACGLYHTMNG [GATA5_Y216_K218T] |  | 2.558 | 
12 | SGLDSYVRSLP [TRAPPC1_Y133_R129G] |  |  | Screen [1, 7]: -0.62
13 | RAMPVYEKAEH [TP63_Y231_K232E] |  |  | Screen [4, 8]: 2.795
14 | PQIVKYRPDCI [LDHB_Y128_S129R] | -0.6179 |  | 
15 | ARSHIYTLASC [MEFV_Y741_F743L] |  | 0.6764 | 
16 | VEDQFYRVDCF [FHL1_Y208_C209R_YF] | 0.3405 | -0.6364 | 
17 | VQQVIYATRAL [MYH7_Y422_G425R] | -0.009809 |  | Screen [3, 6]: 0.27
18 | PFSNSYENSLI [EPOR_Y489_P488S_YF] |  |  | Screen [4, 10]: -1.474
19 | HISGVYKLPPD [ANGPTL7_Y145_R140H] |  | 1.474 | 
20 | MSRDVYSIDFF [NTRK2_Y702_T704I_YF] |  |  | Screen [3, 6]: 1.303
21 | CLNAIYQNNLT [GSR_Y158_R153C] |  |  | Screen [4, 10]: 1.727
22 | CGTPEYRAPEI [PRKACA_Y205_L206R] | 0.964 |  | 
23 | LITTLYIGFLD [KCNQ1_Y267_G272D] |  | 0.3249 | Screen [4, 10]: 0.7229
24 | SVVVPYEPPEL [TP53_Y220_V225L] |  |  | Screen [1, 7]: 0.6095
25 | DFFDLYGGEKK [PTPN11_Y66_F71K_YF] | 0.6551 |  | Screen [3, 6]: -0.3154
26 | VFAANYFKLLG [ROR2_Y645_D644N_YF] | 0.3272 |  | 
27 | PAVGIYNGNIN [CDCP1_Y707_D709G] |  | 0.5447 | 

Row | Sequence | Screen [1, 5] | Screen [3, 9] | also measured
28 | FSMGCYEISLE [HMGCL_Y198_G203E_YF] |  | -0.09414 | Screen [4, 10]: -0.6623
29 | NDPMEYAKQHG [ASS1_Y163_L160P] | 0.6452 |  | 
30 | LGKGSYAKVRS [TSSK2_Y23_K27R] |  |  | Screen [3, 6]: -0.7681; Screen [1, 7]: 0.9991
31 | FSGKAYADEEQ [CRIM1_Y826_R831Q] | 0.3767 |  | 
32 | CVRTIYTIDGS [DCLK2_Y124_G119C] |  | 0.3247 | 
33 | QEGPEYWDLET [HLA-A_Y83_Q86L] |  |  | Screen [2]: 0.9985
34 | LRAGVYREKDQ [DNM2_Y626_P627R] | -0.9512 |  | 
35 | LANNEYFFQVC [TTN_Y18997_R19000Q_YF] |  |  | Screen (variant relative to reference peptide, measured in the pTyr-Var library screen) [2]: 1.182
36 | FAFQLYDLDPD [CHP2_Y123_R127P_YF] |  | 0.6897 | 
37 | GLCSFYETSKM [MAGED2_Y449_R446C_YF] |  |  | Screen [4, 10]: 1.926
38 | REGAKYVSHGT [ASS1_Y113_A118T] | 0.5424 |  | 
39 | RDSQIYAVDFE [MRPS34_Y34_L33I_YF] |  | 2.537 | 
40 | QRRLVYFERGA [RYR1_Y245_G248R_YF] | 1.153 |  | 
41 | EKKKFYDAKIE [CASP5_Y104_T106A_YF] | 2.357 |  | 
42 | IGEVVYQRAAM [GRIN2A_Y502_V506A] |  | -0.3302 | 
43 | GKSFIYAAFHA [KCNT1_Y563_T562I] |  | -0.6339 | 
44 | QAEELYFGKMG [YES1_Y159_W158L] |  |  | Screen [3, 6]: 2.237
45 | CPFNLYAEQFS [HGD_Y40_L44F_YF] |  |  | Screen [2]: 0.9285
46 | REHTVYWEPRK [MAGEA4_Y240_G241W] |  | 1.621 | Screen [2]: 3.741
47 | LITTLYIDFLG [KCNQ1_Y267_G269D] |  | -1.548 | 
48 | AHAGEYGAVAL [HBA1_Y25_E28V] |  | 2.935 | 
49 | RNGDRYFKEIV [DCX_Y64_G67E] | 1.189 |  | 
50 | GLIPAYHWVIM [NMNAT1_Y64_R66W] |  |  | Screen [4, 10]: 3.48
51 | FFRNVYHLASV [RBL1_Y796_K794N_YF] | -1.016 |  | 
52 | RTVDVYFGPQM [KIRREL3_Y332_R336Q] |  | 1.347 | 
53 | QLLIEYPPEEV [ZZZ3_Y670_K669E] |  |  | Screen [1, 7]: 2.193
